One may read the Ki as the dissociation constant of the complex between target and ligand, obtained from inhibition or displacement.

Test [1] can be described thus: Displacement of [3H]DTG from sigma2 receptor in rat liver homogenate in presence of (+)-pentazocine. It is filed as tissue-based. (In general: In a radioligand displacement assay an active substance lowers the binding of a labelled ligand.)
Test [2] has as its target Sigma non-opioid intracellular receptor 1 (Cavia porcellus, UniProt Q60492). Put plainly: Displacement of [3H](+)-pentazocine from sigma1 receptor in guinea pig brain homogenate. Type of test: tissue-based.
Test [3] is described as follows: Selectivity ratio of Ki for rat sigma2 receptor to Ki for guinea pig sigma1 receptor.
A short description of test [4]: Binding affinity to sigma2 receptor. Set-up: species or system Homo sapiens.
Test [5] is described as follows: Binding affinity to sigma2 receptor in guinea pig brain homogenate. Type of test: tissue-based, Cavia porcellus.
Test [6] deals with Sigma non-opioid intracellular receptor 1 (Rattus norvegicus, UniProt Q9R0C9). In words: biochemical.
Description: Displacement of [3H](+)-pentazocine from sigma1 receptor in rat brain homogenate after 120 mins
Test [7] is described as follows: Binding affinity to sigma1 receptor.

Sequence of Sigma non-opioid intracellular receptor 1 (Cavia porcellus, UniProt Q60492) (Q60492 whole entry): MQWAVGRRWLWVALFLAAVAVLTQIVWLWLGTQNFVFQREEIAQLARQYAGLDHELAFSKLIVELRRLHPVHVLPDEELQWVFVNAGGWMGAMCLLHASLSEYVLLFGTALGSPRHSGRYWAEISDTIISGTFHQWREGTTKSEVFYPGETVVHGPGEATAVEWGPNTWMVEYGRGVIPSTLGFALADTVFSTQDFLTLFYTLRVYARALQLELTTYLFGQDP
Sequence of Sigma non-opioid intracellular receptor 1 (Rattus norvegicus, UniProt Q9R0C9) (Q9R0C9 whole entry): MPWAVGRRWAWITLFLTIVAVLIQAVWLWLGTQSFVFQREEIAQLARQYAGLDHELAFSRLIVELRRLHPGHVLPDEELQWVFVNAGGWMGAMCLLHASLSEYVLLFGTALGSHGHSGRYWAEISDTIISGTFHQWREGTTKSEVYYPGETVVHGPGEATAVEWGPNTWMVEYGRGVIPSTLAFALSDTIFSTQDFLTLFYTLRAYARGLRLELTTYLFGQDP

Consider `CCCOc1ccc(CN2CCN(Cc3cc4ccccc4o3)C2)cc1`, for which the Ki in test [1] is 6470 nM; in test [2] it was 53.5 nM. Besides, the Ratio Ki in test [3] was determined as 121.
In test [4], `COc1cccc2c1CCCC2CCCN1CCN(Cc2ccccc2)CC1` (stereo unspecified) showed a Ki of 1870 nM.
As for `FCCOc1ccc(CN2CCN(Cc3cc4ccccc4o3)CC2)cc1`, the Ki in test [1] is 807 nM; in test [2] it was 0.05 nM. Besides, the Ratio Ki in test [3] came out at 16100.
Regarding `FCCCOc1ccc(CN2CCN(Cc3cc4ccccc4o3)C2)cc1`, the Ki in test [1] was 3640 nM; in test [2], 20.8 nM. Besides, the Ratio Ki in test [3] turned out to be 175.
In the same order, the values of `CCCOc1ccc(CN2CCCN(Cc3cc4ccccc4o3)CC2)cc1` are 700 nM, 0.152 nM and 4600.
`FCCOc1ccc(CN2CCN(Cc3cc4ccccc4o3)C2)cc1`: the inhibition constant (Ki) worked out at 1530 nM in test [1] and 6.45 nM in test [2]. Further, the Ratio Ki in test [3] came out at 237.
In the same order, the values of `COc1ccc(CN2CCN(Cc3cc4ccccc4o3)C2)cc1` are 2500 nM, 43 nM and 58.
In the same order, the values of `FCCCOc1ccc(CN2CCCN(Cc3cc4ccccc4o3)CC2)cc1` are 1380 nM, 0.12 nM and 11500.
On the same counts, the results for `CCOc1ccc(CN2CCN(Cc3cc4ccccc4o3)C2)cc1` are 2380 nM, 19.3 nM and 123.
On to `FCCCOc1ccc(CN2CCN(Cc3cc4ccccc4o3)CC2)cc1`, for which the Ki amounted to 1360 nM in test [1] and 1.61 nM in test [2]. The Ratio Ki in test [3] came to 842.
On the same counts, the results for `CCOc1ccc(CN2CCCN(Cc3cc4ccccc4o3)CC2)cc1` are 292 nM, 0.194 nM and 1500.
On the same counts, the results for `COc1ccc(CN2CCN(Cc3cc4ccccc4o3)CC2)cc1` are 167 nM, 0.18 nM and 929.
In the same order, the values of `CCOc1ccc(CN2CCN(Cc3cc4ccccc4o3)CC2)cc1` are 1120 nM, 0.18 nM and 6190.
Consider `COc1ccc(CN2CCCN(Cc3cc4ccccc4o3)CC2)cc1`, for which the Ki in test [1] was determined as 119 nM; in test [2], 0.54 nM. The Ratio Ki in test [3] was 220.
`FCCOc1ccc(CN2CCCN(Cc3cc4ccccc4o3)CC2)cc1`: the Ki was determined as 88.1 nM in test [1] and 0.1 nM in test [2]. Further, the Ratio Ki in test [3] turned out to be 881.
For `COc1ccc(CCN2CCN(CCCc3ccccc3)CC2)cc1OC` [[11C]SA4503], the Ki in test [5] turned out to be 63 nM.
In the case of `CCCOc1ccc(CN2CCN(Cc3cc4ccccc4o3)CC2)cc1`, the figures for the Ki in test [1] and in test [2] were 1470 nM and 10.3 nM, respectively. For the same molecule, in test [3], the Ratio Ki stood at 143.
For the molecule `S=c1sc2ccccc2n1CCCCN1CCN(C2CCCCC2)CC1`, in test [6], the Ki stood at 1.3 nM.
In the case of `COc1cccc(CCN2CCN(CCCc3ccccc3)CC2)c1`, the Ki was 1.4 nM in test [7] and 10.2 nM in test [4].
The molecule `c1ccc(CN2CCN(Cc3ccccc3)CC2)cc1` came in with a Ki in test [4] of 1270 nM.

Values taken from ChEMBL document CHEMBL2069270, “Exploration of ring size in a series of cyclic vicinal diamines with σ₁ receptor affinity” (Bioorg Med Chem Lett, 2012).
